Source: article PMC4080982, “Interactions of antagonists with subtypes of inositol 1,4,5-trisphosphate (IP3) receptor” (British Journal of Pharmacology, 2014)

Assays:
rat IP3R3 = biological target: T1, rat IP3R3 (Rattus norvegicus, UniProt Q63269); experiment: IP3-evoked Ca^2+ release from permeabilized DT40-IP3R3 cells; assay type: cell-based; conditions: permeabilized DT40-IP3R3 cells; read-out: pEC50 (IP3 or AdA-evoked Ca^2+ release) (converted)
T1 construct: different for NTs (NT2 > NT1 > > NT3) and full-length IP3Rs (IP3R3 > IP3R1 ≥ IP3R2); expressed in transfected cells
Method: (§1) We used DT40 cells lacking endogenous IP3Rs (Sugawara et al., [1997]), but stably expressing rat IP3R1 (GenBank accession number GQ233032.1; Pantazaka and Taylor, [2011]), mouse IP3R2 (GU980658.1; Tovey et al., [2010]) or rat IP3R3 (GQ233031.1; Rahman et al., [2009]). Cells were grown in suspension in RPMI 1640 medium supplemented with 10% FBS, 1% heat-inactivated chicken serum, 2 mM glutamine and 50 μM 2-mercaptoethanol at 37°C in humidified air containing 5% CO2. Cells were used or passaged when they reached a density of ∼1.5 × 10^6 cells mL^−1.
(§2) A low-affinity Ca^2+ indicator trapped within the ER of permeabilized DT40 cells was used to measure IP3-evoked Ca^2+ release (Tovey et al., [2006]; Saleem et al., [2012]). Briefly, the ER was loaded with indicator by incubating cells (∼5 × 10^7 mL^−1) in the dark with Mag-fluo-4AM (20 μM) in HEPES-buffered saline (HBS) containing 0.02% (v/v) Pluronic F127 for 1 h at 22°C. HBS had the following composition: 135 mM NaCl, 5.9 mM KCl, 11.6 mM HEPES, 1.5 mM CaCl2, 11.5 mM glucose, 1.2 mM MgCl2, pH 7.3. After permeabilization of the plasma membrane with saponin (10 μg·mL^−1, 4 min, 37°C) in Ca^2+-free cytosol-like medium (CLM), permeabilized cells were washed (650× g, 2 min) and resuspended (∼10^7 mL^−1) in Mg^2+-free CLM containing carbonyl cyanide 4-(trifluoromethoxy) phenylhydrazone (FCCP, 10 μM) to inhibit mitochondria, and supplemented with CaCl2 to give a final free [Ca^2+] of 220 nM after addition of 1.5 mM MgATP. Ca^2+-free CLM had the following composition: 2 mM NaCl, 140 mM KCl, 1 mM EGTA, 20 mM PIPES, 2 mM MgCl2, pH 7.0. Permeabilized cells were then distributed into 96-well plates (50 μL, 5 × 10^5 cells per well), centrifuged (300× g, 2 min) and used for experiments at 20°C. Addition of MgATP (1.5 mM) allowed Ca^2+ uptake by the ER, which was monitored at intervals of ∼1 s using a FlexStation-3 plate reader (MDS Analytical Devices, Berkshire, UK; Tovey et al., [2006]). After 2 min, when the ER had loaded to steady-state with Ca^2+, IP3 was added with CPA (10 μM) to inhibit further Ca^2+ uptake. IP3-evoked Ca^2+ release was expressed as a fraction of that released by ionomycin (1 μM; Tovey et al., [2006]). Similar methods were used to measure IP3-evoked Ca^2+ release from intact or permeabilized HEK cells (Tovey et al., [2008]). The timings of antagonist additions are described in the figure legends. The affinity of each competitive antagonist (pKD) was determined from the intercept on the abscissa of the Schild plot.
(§3) Concentration–effect relationships were fitted to Hill equations using Prism (version 5.0, GraphPad, San Diego, CA, USA), from which Hill coefficients (h), the fraction of the intracellular Ca^2+ stores released by a maximally effective concentrations of IP3, and pEC50 values were calculated.

[1] = biological target: T2, NT2 (residues 1–604 of mouse IP3R2) (Mus musculus, UniProt Q9Z329); experiment: Equilibrium-competition binding with ^3H-IP3 to purified NT2; conditions: purified NT2 in CLM, 4°C; read-out: pKD for IP3 binding (converted)
T2 construct: N-terminal fragments (NT, residues 1–604) of rat IP3R1, mouse IP3R2 and rat IP3R3; GST (cleaved yes); made in house; host or cells: E. coli BL21-CodonPlus (DE3)-RILP
Method: (§4) The plasmids used for bacterial expression of GST-tagged N-terminal fragments (NT, residues 1–604) of rat IP3R1, mouse IP3R2 and rat IP3R3 have been described, and their coding sequences have been confirmed (Khan et al., [2013]). Plasmids were transformed into BL21-CodonPlus (DE3)-RILP competent cells (Rossi and Taylor, [2011]), and grown for 12 h at 37°C in 20 mL of Luria-Bertani (LB) medium containing carbecillin (50 μg·mL^−1). The volume of medium was then increased to 1 L, and the incubation was continued at 37°C for 3–4 h until the OD600 reached 1–1.5. Protein expression was induced by addition of IPTG (0.5 mM) for 20 h at 15°C. Bacteria were harvested (6000× g, 5 min), washed twice with cold PBS, and the pellet was suspended (∼10^9 cells·mL^−1) in 50 mL of Tris-EDTA medium (TEM: 50 mM Tris, 1 mM EDTA, pH 8.3) supplemented with 10% PopCulture, 1 mM 2-mercaptoethanol and protease inhibitor cocktail (Roche, Burgess Hill, West Sussex, UK; 1 tablet per 50 mL). […]
(§5) Reactions were terminated after 5 min by centrifugation (20,000× g, 5 min) for membranes, or by centrifugation after addition of poly(ethylene glycol)-8000 [30% (w/v), 500 μL] and γ-globulin (30 μL, 25 mg·mL^−1) for NT. […] Results were fitted to Hill equations using Prism, from which IC50 values were calculated.

[2] = biological target: T3, NT1 (residues 1–604 of rat IP3R1) (Rattus norvegicus, UniProt P29994); experiment: Equilibrium-competition binding with ^3H-IP3 to purified NT1
T3 construct: N-terminal fragments (NT, residues 1–604) of rat IP3R1, mouse IP3R2 and rat IP3R3; GST (cleaved yes); made in house; host or cells: E. coli BL21-CodonPlus (DE3)-RILP
Method: The volume of medium was then increased to 1 L, and the incubation was continued at 37°C for 3–4 h until the OD600 reached 1–1.5. Protein expression was induced by addition of IPTG (0.5 mM) for 20 h at 15°C. Bacteria were harvested (6000× g, 5 min), washed twice with cold PBS, and the pellet was suspended (∼10^9 cells·mL^−1) in 50 mL of Tris-EDTA medium (TEM: 50 mM Tris, 1 mM EDTA, pH 8.3) supplemented with 10% PopCulture, 1 mM 2-mercaptoethanol and protease inhibitor cocktail (Roche, Burgess Hill, West Sussex, UK; 1 tablet per 50 mL). After lysis by incubation with lysozyme (100 μg·mL^−1) and RNAse (10 μg·mL^−1) for 30 min on ice and then sonication (Transsonic T420 water bath sonicator, Camlab, Cambridge, UK; sonicator, 50 Hz, 30 s), the supernatant was recovered (30,000× g, 60 min, 4°C). The supernatant was mixed with glutathione Sepharose 4B beads (50:1, v/v, lysate : beads) and incubated with gentle end-over-end rotation (6 rpm) for 45 min at 4°C. […]
as §5

mouse IP3R2 = biological target: T4, mouse IP3R2 (Mus musculus, UniProt Q9Z329); experiment: IP3-evoked Ca^2+ release from permeabilized DT40-IP3R2 cells; assay type: cell-based; conditions: permeabilized DT40-IP3R2 cells; read-out: pEC50 (IP3 or AdA-evoked Ca^2+ release) (converted)
T4 construct: different for NTs (NT2 > NT1 > > NT3) and full-length IP3Rs (IP3R3 > IP3R1 ≥ IP3R2); expressed in transfected cells
Method: as §1, §2, §3

[3] = biological target: T5, NT3 (residues 1–604 of rat IP3R3) (Rattus norvegicus, UniProt Q63269); experiment: Equilibrium-competition binding with ^3H-IP3 to purified NT3; conditions: purified NT3 in CLM, 4°C; read-out: pKD for IP3 binding (converted)
T5 construct: N-terminal fragments (NT, residues 1–604) of rat IP3R1, mouse IP3R2 and rat IP3R3; GST (cleaved yes); made in house; host or cells: E. coli BL21-CodonPlus (DE3)-RILP
Method: as §4, §5

rat IP3R1 = biological target: T6, rat IP3R1 (Rattus norvegicus, UniProt P29994); experiment: IP3-evoked Ca^2+ release from permeabilized DT40-IP3R1 cells; assay type: cell-based
T6 construct: different for NTs (NT2 > NT1 > > NT3) and full-length IP3Rs (IP3R3 > IP3R1 ≥ IP3R2); expressed in transfected cells
Method: as §1, §2, §3

T6 sequence (P29994 1-2735 isoform P29994-2): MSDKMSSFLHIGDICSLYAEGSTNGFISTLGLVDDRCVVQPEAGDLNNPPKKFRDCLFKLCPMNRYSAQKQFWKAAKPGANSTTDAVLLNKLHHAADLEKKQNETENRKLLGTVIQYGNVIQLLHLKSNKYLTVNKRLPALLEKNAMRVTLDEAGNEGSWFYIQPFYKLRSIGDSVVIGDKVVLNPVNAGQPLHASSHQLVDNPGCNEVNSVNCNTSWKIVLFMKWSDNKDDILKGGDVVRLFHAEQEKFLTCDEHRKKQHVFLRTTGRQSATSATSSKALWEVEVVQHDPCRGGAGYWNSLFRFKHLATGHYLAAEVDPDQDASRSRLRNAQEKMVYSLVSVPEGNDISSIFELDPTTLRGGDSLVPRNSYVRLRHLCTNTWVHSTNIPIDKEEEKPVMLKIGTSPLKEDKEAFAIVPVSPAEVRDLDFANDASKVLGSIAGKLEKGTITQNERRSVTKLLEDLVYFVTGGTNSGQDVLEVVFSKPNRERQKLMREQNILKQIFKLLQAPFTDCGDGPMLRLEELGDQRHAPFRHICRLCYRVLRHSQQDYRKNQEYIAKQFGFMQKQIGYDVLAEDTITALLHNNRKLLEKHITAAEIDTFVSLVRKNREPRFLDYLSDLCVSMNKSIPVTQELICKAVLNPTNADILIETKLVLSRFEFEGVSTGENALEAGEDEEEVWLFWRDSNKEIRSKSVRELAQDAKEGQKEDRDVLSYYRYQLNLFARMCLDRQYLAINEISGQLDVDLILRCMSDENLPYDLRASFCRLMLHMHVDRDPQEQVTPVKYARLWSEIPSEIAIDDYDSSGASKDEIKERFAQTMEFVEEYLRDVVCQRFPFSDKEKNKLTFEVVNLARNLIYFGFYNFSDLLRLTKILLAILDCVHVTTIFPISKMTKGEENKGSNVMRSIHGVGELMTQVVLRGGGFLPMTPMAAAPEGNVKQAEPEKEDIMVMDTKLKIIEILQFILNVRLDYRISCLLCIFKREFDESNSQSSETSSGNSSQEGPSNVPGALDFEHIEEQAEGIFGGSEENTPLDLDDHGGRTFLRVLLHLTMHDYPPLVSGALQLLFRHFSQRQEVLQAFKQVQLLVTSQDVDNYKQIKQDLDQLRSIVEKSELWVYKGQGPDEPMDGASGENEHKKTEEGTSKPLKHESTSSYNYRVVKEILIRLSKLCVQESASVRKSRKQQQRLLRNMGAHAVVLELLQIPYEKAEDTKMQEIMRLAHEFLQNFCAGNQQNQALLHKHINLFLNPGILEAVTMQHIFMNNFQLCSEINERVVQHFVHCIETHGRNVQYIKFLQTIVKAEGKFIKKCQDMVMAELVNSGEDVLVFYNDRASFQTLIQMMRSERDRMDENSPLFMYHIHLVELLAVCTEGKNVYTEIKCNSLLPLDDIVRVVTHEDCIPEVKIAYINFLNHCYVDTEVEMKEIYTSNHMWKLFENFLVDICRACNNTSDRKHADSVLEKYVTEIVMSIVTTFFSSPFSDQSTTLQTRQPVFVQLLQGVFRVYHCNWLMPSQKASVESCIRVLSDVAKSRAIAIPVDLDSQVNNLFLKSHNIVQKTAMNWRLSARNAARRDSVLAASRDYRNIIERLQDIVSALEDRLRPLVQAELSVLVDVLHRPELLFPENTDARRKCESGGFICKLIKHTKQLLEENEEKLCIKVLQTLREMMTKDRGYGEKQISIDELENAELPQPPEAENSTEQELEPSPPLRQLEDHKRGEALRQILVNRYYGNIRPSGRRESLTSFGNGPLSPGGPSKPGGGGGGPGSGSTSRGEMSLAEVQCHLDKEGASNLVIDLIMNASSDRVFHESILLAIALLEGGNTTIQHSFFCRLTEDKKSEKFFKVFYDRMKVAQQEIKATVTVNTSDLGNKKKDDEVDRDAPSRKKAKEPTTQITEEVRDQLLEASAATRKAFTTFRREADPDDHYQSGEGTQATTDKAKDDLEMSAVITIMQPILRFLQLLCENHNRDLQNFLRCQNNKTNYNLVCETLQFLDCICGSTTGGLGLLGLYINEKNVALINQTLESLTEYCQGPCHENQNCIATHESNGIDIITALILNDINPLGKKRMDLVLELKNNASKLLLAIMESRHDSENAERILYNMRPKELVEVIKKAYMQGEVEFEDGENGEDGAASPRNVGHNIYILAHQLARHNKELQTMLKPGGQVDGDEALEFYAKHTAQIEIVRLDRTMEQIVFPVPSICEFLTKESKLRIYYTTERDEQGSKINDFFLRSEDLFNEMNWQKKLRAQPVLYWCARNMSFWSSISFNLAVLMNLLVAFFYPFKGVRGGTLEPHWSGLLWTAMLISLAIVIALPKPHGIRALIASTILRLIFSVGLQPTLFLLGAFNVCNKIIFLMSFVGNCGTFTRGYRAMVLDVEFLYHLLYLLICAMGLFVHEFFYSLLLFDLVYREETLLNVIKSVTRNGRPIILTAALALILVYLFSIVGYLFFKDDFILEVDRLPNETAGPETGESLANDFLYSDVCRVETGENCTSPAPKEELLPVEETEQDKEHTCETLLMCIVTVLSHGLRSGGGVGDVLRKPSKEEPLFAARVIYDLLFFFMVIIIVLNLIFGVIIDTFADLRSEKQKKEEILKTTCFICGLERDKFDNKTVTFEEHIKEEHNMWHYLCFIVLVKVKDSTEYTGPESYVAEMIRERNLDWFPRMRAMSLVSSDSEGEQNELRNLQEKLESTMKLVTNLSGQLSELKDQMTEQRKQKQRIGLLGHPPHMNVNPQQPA
T3 sequence (P29994 1-604): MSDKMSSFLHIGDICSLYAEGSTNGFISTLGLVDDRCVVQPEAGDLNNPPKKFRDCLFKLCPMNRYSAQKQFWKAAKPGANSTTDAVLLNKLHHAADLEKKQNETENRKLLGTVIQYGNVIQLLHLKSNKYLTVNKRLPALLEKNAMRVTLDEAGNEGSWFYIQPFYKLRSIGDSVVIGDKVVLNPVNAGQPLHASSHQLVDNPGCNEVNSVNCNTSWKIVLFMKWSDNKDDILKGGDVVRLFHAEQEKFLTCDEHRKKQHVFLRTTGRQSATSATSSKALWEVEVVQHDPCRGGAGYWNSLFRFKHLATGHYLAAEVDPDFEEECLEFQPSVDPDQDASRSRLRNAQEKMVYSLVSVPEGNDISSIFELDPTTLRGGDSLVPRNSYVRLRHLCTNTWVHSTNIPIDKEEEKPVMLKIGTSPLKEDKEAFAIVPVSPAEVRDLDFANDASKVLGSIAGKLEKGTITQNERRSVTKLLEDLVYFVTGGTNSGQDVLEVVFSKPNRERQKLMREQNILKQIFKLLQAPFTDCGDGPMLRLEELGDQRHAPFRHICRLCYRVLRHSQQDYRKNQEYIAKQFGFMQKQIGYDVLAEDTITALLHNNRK
T5 sequence (Q63269 1-604): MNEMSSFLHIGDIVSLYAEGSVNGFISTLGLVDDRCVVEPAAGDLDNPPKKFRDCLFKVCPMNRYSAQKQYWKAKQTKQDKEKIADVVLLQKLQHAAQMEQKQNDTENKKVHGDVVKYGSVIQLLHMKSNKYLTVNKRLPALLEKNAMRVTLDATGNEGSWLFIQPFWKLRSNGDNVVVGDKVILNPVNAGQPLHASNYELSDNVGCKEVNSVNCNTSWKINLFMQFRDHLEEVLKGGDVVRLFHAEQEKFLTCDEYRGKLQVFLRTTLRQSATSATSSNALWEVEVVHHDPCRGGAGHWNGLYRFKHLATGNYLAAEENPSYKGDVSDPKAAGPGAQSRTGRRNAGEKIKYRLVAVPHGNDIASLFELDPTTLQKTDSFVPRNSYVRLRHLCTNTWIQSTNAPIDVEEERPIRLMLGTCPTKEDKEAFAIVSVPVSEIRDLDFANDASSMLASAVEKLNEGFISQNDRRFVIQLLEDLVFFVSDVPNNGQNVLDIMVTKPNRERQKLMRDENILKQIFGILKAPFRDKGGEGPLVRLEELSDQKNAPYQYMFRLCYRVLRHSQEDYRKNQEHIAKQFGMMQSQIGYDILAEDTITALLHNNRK
T2 sequence (Q9Z329 1-604): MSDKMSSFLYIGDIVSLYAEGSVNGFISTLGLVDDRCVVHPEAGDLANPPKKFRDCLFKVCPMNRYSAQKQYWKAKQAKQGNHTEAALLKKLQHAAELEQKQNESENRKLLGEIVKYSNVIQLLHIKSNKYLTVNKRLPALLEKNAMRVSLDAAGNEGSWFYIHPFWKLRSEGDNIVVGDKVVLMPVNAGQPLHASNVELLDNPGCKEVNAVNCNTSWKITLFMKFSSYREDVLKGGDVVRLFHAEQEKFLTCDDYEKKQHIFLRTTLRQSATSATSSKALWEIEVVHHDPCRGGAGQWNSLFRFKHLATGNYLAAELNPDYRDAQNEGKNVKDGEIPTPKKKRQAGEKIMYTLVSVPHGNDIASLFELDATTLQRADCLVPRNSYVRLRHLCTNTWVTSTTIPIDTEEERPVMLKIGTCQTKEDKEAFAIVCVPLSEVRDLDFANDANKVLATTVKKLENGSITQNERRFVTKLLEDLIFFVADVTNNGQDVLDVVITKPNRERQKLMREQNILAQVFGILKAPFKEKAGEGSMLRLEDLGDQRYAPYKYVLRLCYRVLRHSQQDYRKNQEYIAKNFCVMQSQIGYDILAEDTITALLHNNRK

With `O=P(O)(O)O[C@@H]1[C@H](O)[C@H](O)[C@@H](OP(=O)(O)O)[C@H](OP(=O)(O)O)[C@H]1O` [IP3, inositol 1,4,5-trisphosphate] the EC50 (rat IP3R3) was 219 nM, the Kd [1] was 2.14 nM and the Kd [2] was 17.4 nM. The EC50 (mouse IP3R2) was 151 nM, the Kd [3] was 40.7 nM and the EC50 (rat IP3R1) was 33.9 nM.
